Key:
S. typhimurium TA100 = test: Ames mutagenicity test (Ames 384-ISO Well Test); details: for Mutagenic effect TA100-S9: with metabolic activation (S9 mix); for Mutagenic effect TA100: without S9 mix
[1] = test system: L. donovani-iRFP axenic amastigotes; test: Antileishmanial effect on axenic amastigotes (iRFP fluorescence viability, 72 h); assay type: cell-based; details: Leishmania donovani
Procedure: For efficacy studies, L. donovani-iRFP, a genetically modified strain of L. donovani LV9 constitutively expressing the gene encoding the infrared fluorescent protein (iRFP) ([Melcón-Fernández et al., 2023]), was used. This strain was grown as promastigotes in Schneider's insect medium (Sigma-Aldrich, Merck, Darmstadt, Germany) supplemented with 20 % (v/v) foetal bovine serum (FBS) (Gibco, ThermoFisher Scientific, Waltham, MA, USA) and […] antibiotic cocktail (100 U/mL penicillin and 100 μg/mL streptomycin) (Hyclone, ThermoFisher Scientific, Waltham, MA, USA) at 26 °C until mice were infected ([Carballeira et al., 2016]). Axenic and intramacrophage amastigotes were isolated from six-to eight-week-old female Balb/c mice (see below) that had been infected intraperitoneally with 1.5 × 10^9 metacyclic L. donovani-iRFP promastigotes. To obtain axenic amastigotes, bone marrow was extracted from the femur and tibia of 8- to 10-week-old infected mice and passed through a 100 μm cell strainer. After centrifugation at 3500 rcf for 10 min at room temperature, cell suspensions were resuspended in medium containing 15 mM KCl; 136 mM KH2PO4; 10 mM K2HPO4.3H2O; 0.5 mM MgSO4.7H2O; 24 mM NaHCO3; 22 mM glucose; 1 mM glutamine, 1 × RPMI 1640 vitamin mix (Sigma-Aldrich, Merck, Darmstadt, Germany), 10 mM folic acid, 100 mM adenosine, 1 × RPMI amino acid mix (Sigma-Aldrich, Merck, Darmstadt, Germany), 5 mg/mL hemin, 25 mM 2-morpholinoethanesulfonic acid (MES) pH 5.6, supplemented with 10 % FBS (Gibco, ThermoFisher Scientific, Waltham, MA, USA) and antibiotic cocktail, and incubated at 37 °C and 5 % CO2. To obtain intramacrophage amastigotes, spleens from infected Balb/c mice were cut into pieces, ground with 2 mg/mL collagenase D (Merck, Darmstadt, Germany) and passed through a 100 μm cell strainer. The splenocyte-enriched cell suspension containing intramacrophage amastigotes was resuspended in RPMI medium (Gibco, Fisher Scientific International Inc., Pittsburgh, PA, USA) supplemented with 20 % FBS, 1 mM sodium pyruvate, 24 mM NaHCO3, 2 mM L-glutamine, 1 × RPMI vitamins, 25 mM HEPES pH 7.2 and antibiotic cocktail ([Ashok et al., 2016]).
The antileishmanial effect of the nitrofurans selected in this study was tested both in vitro on axenic L. donovani-iRFP amastigotes and ex vivo on intramacrophage amastigotes according to previously published methods ([Melcón-Fernández et al., 2023], [2024]; [Andrés-Rodríguez et al., 2024]). Assays were performed in a final volume of […] containing 20,000 axenic amastigotes or a number of L. donovani-iRFP-infected murine splenocytes representing 150,000 relative fluorescence units (RFU), in each well of a black 384-well microtiter plate with optical bottom. In addition, 40 μL of one-half serial dilutions of each compound in amastigotes culture medium (for axenic amastigotes) or in supplemented RPMI medium (for intramacrophage amastigotes) were added to each well. Positive (amphotericin B at a final concentration of 18 μM) and negative (0.1 % v/v DMSO) controls were included on each plate. The plates were incubated at 37 °C and 5 % CO2 for a maximum of 72 h. Fluorescence emitted by viable L. donovani-iRFP was measured on an Odyssey infrared imaging system (Li-Cor, NE, USA).
All experiments were carried out in triplicate and included at least three technical replicates. […] The SI was calculated from the CC50/EC50 ratio.

[2] = test system: L. donovani-iRFP axenic amastigotes; test: ROS production by axenic amastigotes (DCFH-DA, flow cytometry); assay type: cell-based, Leishmania donovani; details: compound at its axenic EC50, 3 h
Procedure: To assess ROS production in L. donovani-iRFP, axenic amastigotes were treated with nitrofurans at the concentration equivalent to their EC50 calculated in viability experiments. As positive control of oxidative stress induction, cultures were treated with 0.01 % H2O2 (v/v), whereas 0.03 % (v/v) DMSO was added as negative control. After an incubation period of 3 h at 37 °C, cells were harvested by centrifugation at 3500 rcf for 10 min, washed in phosphate-buffered saline (PBS), centrifuged again and resuspended in PBS. Cells were labeled with 5 μM 2′,7′-dichlorofluorescein diacetate (DCFH-DA, MedChemExpress) for 30 min at 37 °C. Then, cells were centrifuged at 3500 rcf for 5 min, washed, and resuspended in PBS. The cell suspension was stored at 4 °C until the analysis by flow cytometry, which was performed in a CytoFLEX SRT (Beckman Coulter). The experiment was carried out in triplicate and included three technical replicates.

SMILES	Mutagenic effect TA100-S9 (S. typhimurium TA100; 0.5 μM)	Mutagenic effect TA100 (S. typhimurium TA100; 0.5 μM)	Mutagenic effect TA100-S9 (S. typhimurium TA100; 5.0 μM)	Mutagenic effect TA100 (S. typhimurium TA100; 5.0 μM)	Mutagenic effect TA100-S9 (S. typhimurium TA100; 50.0 μM)	Mutagenic effect TA100 (S. typhimurium TA100; 50.0 μM)	EC50 [1]	Negative ROS (unstressed population) [2]	Positive ROS (stressed population) [2]	Positive ROS (stressed population) ([2]; listed as NITROFURANTOIN)
NC(=O)N/N=C/c1ccc([N+](=O)[O-])o1 [Nitrofurazone]	+ (0.05)	+ (0.001)	+ (0.001)	+ (0.05)	- ^b	- ^b	490 ± 30 nM	44.1%	55.9%	–
O=C1NN(c2ccc(F)c(Cl)c2)C(=O)C1=Cc1ccc([N+](=O)[O-])o1 [PYZD-4409, 1-(3-chloro-4-fluorophenyl)-4-[(5-nitro-2-furyl)methylene]-3,5-pyrazolidinedione]	–	–	–	–	–	–	1270 ± 40 nM	36.9%	63.1%	–
O=C1CN(/N=C/c2ccc([N+](=O)[O-])o2)C(=O)N1 [Nitrofurantoin]	–	–	–	–	–	–	1460 ± 80 nM	23.9%	76.1 ± 11.6%	76.1%
N#Cc1ccc([N+](=O)[O-])o1 [5-nitro-2-furonitrile, 5-Nitro-2-furonitrile]	–	–	–	–	–	–	700 ± 50 nM	38.2%	61.8%	–
